Compound in assay [1]: NC(=O)CCCCC1CCSS1 [lipoamide]
As to the kind of experiment: thermal stability z-score vs DMSO; higher = more thermally stabilized by treatment. The note with it: HeLa, lipoamide concentration 100 µM. The method, then:
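Cellular thermal proteome profiling in HeLa cells. Cells were treated with 100 µM lipoamide for 1 h, with or without 1 mM arsenate for a further 1 h, then heated to ten temperatures (37-66.3 °C), and soluble protein was quantified by TMT mass spectrometry relative to 0.1% DMSO controls. The thermal stability score (sum of log2 fold changes minus the abundance score) was transformed to a z-score; mean of n = 3 experiments.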

Compound in assay [2]: O=[As]([O-])(O)O.[K+] [potassium arsenate]
The assay is described as above. The following applies: HeLa; arsenate concentration 1 mM. How it is done:
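Cellular thermal proteome profiling in HeLa cells treated with 1 mM arsenate for 1 h (DMSO pretreatment), heated to ten temperatures (37-66.3 °C). Soluble protein was quantified by TMT mass spectrometry relative to DMSO controls; the thermal stability score was transformed to a z-score; mean of n = 3 experiments.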

Where [3] appears, read: arsenate co-treatment: 1 mM arsenate 1 h.
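Note: each temperature applied for 3 min, abundance score taken as mean log2 fold change at the two lowest temperatures, z-score obtained by mean subtraction and division by SD.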

Chain of UniProt O60271 (O60271 whole entry): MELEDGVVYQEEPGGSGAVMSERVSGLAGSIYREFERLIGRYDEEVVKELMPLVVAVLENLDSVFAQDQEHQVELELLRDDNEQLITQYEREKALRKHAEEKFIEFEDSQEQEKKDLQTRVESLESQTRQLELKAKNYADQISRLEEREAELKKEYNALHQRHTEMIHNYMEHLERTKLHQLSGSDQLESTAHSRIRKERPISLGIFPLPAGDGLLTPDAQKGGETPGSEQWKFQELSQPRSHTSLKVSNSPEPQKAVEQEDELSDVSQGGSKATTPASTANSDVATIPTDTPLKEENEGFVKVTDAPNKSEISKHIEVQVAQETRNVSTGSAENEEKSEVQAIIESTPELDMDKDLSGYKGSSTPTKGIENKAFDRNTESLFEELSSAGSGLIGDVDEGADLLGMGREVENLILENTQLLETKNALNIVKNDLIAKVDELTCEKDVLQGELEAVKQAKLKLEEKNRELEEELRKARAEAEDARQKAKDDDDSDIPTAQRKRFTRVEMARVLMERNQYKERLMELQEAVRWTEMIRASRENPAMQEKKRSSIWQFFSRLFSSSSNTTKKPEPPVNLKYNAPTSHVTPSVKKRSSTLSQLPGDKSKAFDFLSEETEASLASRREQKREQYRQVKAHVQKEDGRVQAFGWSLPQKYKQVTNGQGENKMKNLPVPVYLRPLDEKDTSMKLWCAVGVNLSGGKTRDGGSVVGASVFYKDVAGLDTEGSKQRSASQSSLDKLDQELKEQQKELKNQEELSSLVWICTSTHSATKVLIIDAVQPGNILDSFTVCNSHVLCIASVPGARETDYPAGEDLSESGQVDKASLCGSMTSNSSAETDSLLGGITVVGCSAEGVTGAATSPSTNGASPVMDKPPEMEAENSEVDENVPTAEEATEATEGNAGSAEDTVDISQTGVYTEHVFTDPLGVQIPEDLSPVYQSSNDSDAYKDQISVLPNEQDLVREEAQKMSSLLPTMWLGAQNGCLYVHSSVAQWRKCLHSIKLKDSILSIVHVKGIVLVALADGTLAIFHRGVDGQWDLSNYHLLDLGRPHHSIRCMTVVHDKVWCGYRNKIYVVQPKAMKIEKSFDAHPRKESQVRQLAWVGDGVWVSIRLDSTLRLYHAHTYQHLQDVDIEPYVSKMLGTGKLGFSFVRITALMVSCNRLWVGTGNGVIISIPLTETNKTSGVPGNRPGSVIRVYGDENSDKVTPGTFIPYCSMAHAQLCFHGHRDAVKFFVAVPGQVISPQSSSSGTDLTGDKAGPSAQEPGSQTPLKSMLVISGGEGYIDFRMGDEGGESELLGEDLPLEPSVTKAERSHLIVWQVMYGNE
Chain of UniProt Q08AM6 (Q08AM6 whole entry): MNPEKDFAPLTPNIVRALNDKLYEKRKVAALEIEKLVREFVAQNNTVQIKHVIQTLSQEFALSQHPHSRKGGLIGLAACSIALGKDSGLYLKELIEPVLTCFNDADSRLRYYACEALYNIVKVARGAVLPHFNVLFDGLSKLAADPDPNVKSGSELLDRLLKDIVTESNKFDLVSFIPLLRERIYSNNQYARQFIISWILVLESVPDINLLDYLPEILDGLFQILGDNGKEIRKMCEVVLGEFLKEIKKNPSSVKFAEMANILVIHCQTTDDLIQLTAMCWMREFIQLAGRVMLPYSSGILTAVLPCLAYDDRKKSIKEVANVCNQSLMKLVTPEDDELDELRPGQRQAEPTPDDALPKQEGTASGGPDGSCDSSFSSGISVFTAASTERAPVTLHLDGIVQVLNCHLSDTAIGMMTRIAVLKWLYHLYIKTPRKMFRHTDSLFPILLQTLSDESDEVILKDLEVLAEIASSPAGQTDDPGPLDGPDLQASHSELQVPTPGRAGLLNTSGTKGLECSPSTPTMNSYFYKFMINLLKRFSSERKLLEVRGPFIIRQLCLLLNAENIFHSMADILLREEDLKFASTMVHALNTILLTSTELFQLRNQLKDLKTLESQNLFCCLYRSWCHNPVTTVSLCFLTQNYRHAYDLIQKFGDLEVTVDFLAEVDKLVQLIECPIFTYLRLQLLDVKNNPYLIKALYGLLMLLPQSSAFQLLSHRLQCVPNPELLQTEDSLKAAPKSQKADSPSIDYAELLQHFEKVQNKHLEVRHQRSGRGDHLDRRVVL
Chain of UniProt Q9Y4B5 (Q9Y4B5 whole entry): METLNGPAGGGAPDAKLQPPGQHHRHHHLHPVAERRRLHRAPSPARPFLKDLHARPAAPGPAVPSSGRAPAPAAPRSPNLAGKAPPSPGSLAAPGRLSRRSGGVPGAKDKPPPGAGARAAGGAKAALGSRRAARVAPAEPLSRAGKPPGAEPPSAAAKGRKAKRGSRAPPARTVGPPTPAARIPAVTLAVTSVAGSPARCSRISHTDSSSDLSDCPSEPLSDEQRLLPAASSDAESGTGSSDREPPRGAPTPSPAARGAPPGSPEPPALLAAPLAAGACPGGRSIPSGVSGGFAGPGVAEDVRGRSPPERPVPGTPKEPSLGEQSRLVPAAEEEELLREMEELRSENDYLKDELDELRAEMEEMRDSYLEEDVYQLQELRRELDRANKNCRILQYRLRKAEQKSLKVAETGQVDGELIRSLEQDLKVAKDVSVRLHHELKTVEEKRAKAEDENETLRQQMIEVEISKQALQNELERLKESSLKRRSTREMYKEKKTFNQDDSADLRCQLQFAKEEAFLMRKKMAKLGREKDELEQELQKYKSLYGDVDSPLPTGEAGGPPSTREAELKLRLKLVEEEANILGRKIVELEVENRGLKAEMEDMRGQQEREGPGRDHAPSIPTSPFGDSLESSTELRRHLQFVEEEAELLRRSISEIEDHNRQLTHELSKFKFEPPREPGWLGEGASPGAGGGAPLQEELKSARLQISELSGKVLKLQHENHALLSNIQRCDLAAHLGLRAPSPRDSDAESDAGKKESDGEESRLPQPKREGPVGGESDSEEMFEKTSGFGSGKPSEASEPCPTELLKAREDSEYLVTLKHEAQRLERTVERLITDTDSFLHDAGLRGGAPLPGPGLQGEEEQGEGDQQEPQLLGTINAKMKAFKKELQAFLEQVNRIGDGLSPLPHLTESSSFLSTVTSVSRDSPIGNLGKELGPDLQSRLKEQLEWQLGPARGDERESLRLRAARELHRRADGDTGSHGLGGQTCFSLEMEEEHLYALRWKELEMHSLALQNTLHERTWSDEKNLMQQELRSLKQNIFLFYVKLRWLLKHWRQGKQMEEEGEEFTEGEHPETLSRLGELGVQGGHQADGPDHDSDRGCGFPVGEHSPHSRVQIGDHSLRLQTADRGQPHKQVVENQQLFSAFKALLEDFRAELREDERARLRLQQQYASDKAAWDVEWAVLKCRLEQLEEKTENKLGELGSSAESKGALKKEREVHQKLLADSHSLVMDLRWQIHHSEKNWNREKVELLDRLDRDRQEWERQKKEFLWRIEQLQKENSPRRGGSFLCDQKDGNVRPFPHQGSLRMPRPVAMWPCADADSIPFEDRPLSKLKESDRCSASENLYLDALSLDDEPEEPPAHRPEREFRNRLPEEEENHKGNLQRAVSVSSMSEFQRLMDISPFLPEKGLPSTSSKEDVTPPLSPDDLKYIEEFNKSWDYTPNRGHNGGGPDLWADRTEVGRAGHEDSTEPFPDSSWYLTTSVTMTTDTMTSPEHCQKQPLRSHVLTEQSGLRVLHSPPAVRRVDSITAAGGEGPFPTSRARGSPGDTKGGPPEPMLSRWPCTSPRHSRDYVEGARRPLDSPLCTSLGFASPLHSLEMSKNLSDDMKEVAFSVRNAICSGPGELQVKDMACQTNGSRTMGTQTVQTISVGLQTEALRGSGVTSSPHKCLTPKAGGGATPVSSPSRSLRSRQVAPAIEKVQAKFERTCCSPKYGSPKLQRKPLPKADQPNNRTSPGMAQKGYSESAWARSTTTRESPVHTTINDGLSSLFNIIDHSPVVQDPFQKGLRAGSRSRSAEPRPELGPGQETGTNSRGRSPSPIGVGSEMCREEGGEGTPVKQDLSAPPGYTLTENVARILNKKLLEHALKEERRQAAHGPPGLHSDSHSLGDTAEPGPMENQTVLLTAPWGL
Chain of UniProt Q9BTC8 (Q9BTC8 whole entry): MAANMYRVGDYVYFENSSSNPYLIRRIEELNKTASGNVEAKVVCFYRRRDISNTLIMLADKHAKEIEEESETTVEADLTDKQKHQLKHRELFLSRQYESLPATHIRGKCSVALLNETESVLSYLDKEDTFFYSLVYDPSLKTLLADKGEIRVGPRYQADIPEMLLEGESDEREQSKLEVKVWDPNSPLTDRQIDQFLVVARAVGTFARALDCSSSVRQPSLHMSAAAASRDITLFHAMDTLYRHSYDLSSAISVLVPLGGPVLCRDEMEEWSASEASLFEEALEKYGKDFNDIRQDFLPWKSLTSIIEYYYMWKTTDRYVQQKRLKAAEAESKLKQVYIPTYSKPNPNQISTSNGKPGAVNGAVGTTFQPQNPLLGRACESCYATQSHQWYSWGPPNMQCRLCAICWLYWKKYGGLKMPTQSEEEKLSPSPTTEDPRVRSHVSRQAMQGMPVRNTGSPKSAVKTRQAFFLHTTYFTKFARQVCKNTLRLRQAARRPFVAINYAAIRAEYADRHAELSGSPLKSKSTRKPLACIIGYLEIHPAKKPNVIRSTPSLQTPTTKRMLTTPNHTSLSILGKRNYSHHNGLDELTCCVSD
Chain of UniProt Q8WV60 (Q8WV60 whole entry): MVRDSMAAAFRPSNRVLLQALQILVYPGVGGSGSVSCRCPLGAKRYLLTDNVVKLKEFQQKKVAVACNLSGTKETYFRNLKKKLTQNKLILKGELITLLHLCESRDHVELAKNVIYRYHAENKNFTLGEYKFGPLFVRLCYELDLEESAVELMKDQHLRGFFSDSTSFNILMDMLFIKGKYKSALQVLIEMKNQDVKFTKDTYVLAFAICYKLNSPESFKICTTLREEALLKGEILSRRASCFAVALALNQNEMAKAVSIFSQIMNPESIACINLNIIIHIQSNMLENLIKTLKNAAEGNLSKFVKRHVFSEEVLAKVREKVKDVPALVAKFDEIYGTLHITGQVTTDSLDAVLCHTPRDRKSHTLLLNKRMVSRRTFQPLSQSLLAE

For the target PTCD2 (UniProt Q8WV60), the thermal stability z-score is 0.00948 in assay [1] (setting [3]), -0.0661 in assay [1] (arsenate co-treatment: none) and -0.0322 in assay [2].

As to MTCL1 (UniProt Q9Y4B5), the values for the thermal stability z-score in assay [1] (setting [3]), in assay [1] (arsenate co-treatment: none) and in assay [2] were -0.242, 0.0775 and -1.54, respectively.

Turning to IBA57 (UniProt Q5T440), the thermal stability z-score is -0.0611 in assay [1] (setting [3]), 0.155 in assay [1] (arsenate co-treatment: none) and -0.431 in assay [2].

Turning to NDUFA11 (UniProt Q86Y39), the thermal stability z-score in assay [1] (setting [3]) is 0.521; in assay [1] (arsenate co-treatment: none), -0.0102; in assay [2], 0.571.

In the case of MRM1 (UniProt Q6IN84), the figures for the thermal stability z-score in assay [1] (setting [3]), in assay [1] (arsenate co-treatment: none) and in assay [2] were -0.994, -0.349 and -0.991, respectively.

For the target PPP1R7 (UniProt Q15435), the thermal stability z-score in assay [1] (setting [3]) was 0.128; in assay [1] (arsenate co-treatment: none) it was -0.182; in assay [2] it was -0.488.

In the case of COMMD5 (UniProt Q9GZQ3), the thermal stability z-score in assay [1] (setting [3]) is -0.212; in assay [1] (arsenate co-treatment: none) it was 0.573; in assay [2] it was 0.0506.

With SLMAP (UniProt Q14BN4), the figures for the thermal stability z-score in assay [1] (setting [3]), in assay [1] (arsenate co-treatment: none) and in assay [2] were -0.467, -0.173 and 1.45, respectively.

For RFC2 (UniProt P35250), the figures for the thermal stability z-score in assay [1] (setting [3]), in assay [1] (arsenate co-treatment: none) and in assay [2] were -0.0963, -0.26 and 0.381, respectively.

On to MGAT2 (UniProt Q10469), for which the results for the thermal stability z-score in assay [1] (setting [3]), in assay [1] (arsenate co-treatment: none) and in assay [2] were -0.206, -0.0594 and 0.24, respectively.

Take NME7 (UniProt Q9Y5B8): the thermal stability z-score in assay [1] (setting [3]) was 0.000387; in assay [1] (arsenate co-treatment: none), 0.0484; in assay [2], -0.13.

Consider MIPEP (UniProt Q99797), for which the thermal stability z-score in assay [1] (setting [3]) is -0.162; in assay [1] (arsenate co-treatment: none) it was 0.0258; in assay [2] it was -0.271.

Take CD9 (UniProt P21926): the values for the thermal stability z-score in assay [1] (setting [3]), in assay [1] (arsenate co-treatment: none) and in assay [2] were 1.93, 1.62 and 0.251, respectively.

As for UBE2A (UniProt P49459), the thermal stability z-score in assay [1] (setting [3]) was 0.343; in assay [1] (arsenate co-treatment: none) it was 0.172; in assay [2] it was -0.0388.

Turning to NOP16 (UniProt Q9Y3C1), the results for the thermal stability z-score in assay [1] (setting [3]), in assay [1] (arsenate co-treatment: none) and in assay [2] were -0.153, -0.677 and -1.68, respectively.

As for PSEN2 (UniProt P49810), the figures for the thermal stability z-score in assay [1] (setting [3]), in assay [1] (arsenate co-treatment: none) and in assay [2] were -0.815, -1.79 and -1.19, respectively.

For HADH (UniProt Q16836), the thermal stability z-score in assay [1] (setting [3]) is 0.136; in assay [1] (arsenate co-treatment: none) it was 0.477; in assay [2], -0.432.

With UNC93B1 (UniProt Q9H1C4), the thermal stability z-score in assay [1] (setting [3]) was 0.172; in assay [1] (arsenate co-treatment: none), -0.000713; in assay [2], 0.487.

Take SMPD4 (UniProt Q9NXE4): the thermal stability z-score in assay [1] (setting [3]) was found to be 0.624; in assay [1] (arsenate co-treatment: none) it was 0.149; in assay [2], 1.11.

VAC14 (UniProt Q08AM6): the thermal stability z-score in assay [1] (setting [3]) was -0.483; in assay [1] (arsenate co-treatment: none), -0.0923; in assay [2], -0.61.

LEMD2 (UniProt Q8NC56): the thermal stability z-score in assay [1] (setting [3]) was -1.14; in assay [1] (arsenate co-treatment: none), -1.41; in assay [2], -0.503.

For MTA3 (UniProt Q9BTC8), the thermal stability z-score in assay [1] (setting [3]) is 0.106; in assay [1] (arsenate co-treatment: none), 0.129; in assay [2], -0.13.

As for CKMT1A (UniProt P12532), the thermal stability z-score in assay [1] (setting [3]) stood at 0.957; in assay [1] (arsenate co-treatment: none), 0.965; in assay [2] it was 0.795.

For GGA3 (UniProt Q9NZ52), the thermal stability z-score in assay [1] (setting [3]) was -0.3; in assay [1] (arsenate co-treatment: none), 0.0568; in assay [2] it was -0.298.

NUFIP2 (UniProt Q7Z417): the results for the thermal stability z-score in assay [1] (setting [3]), in assay [1] (arsenate co-treatment: none) and in assay [2] were 0.354, 0.487 and 1.08, respectively.

As for CAP2 (UniProt P40123), the thermal stability z-score in assay [1] (setting [3]) was 0.00549; in assay [1] (arsenate co-treatment: none) it was -0.126; in assay [2], 0.329.

Turning to COG7 (UniProt P83436), the figures for the thermal stability z-score in assay [1] (setting [3]), in assay [1] (arsenate co-treatment: none) and in assay [2] were -0.825, -0.928 and 0.224, respectively.

As to ADAM17 (UniProt P78536), the thermal stability z-score in assay [1] (setting [3]) was -1.11; in assay [1] (arsenate co-treatment: none) it was -0.994; in assay [2] it was -0.966.

With DOCK5 (UniProt Q9H7D0), the thermal stability z-score is -0.433 in assay [1] (setting [3]), -0.478 in assay [1] (arsenate co-treatment: none) and -0.0423 in assay [2].

Turning to OSGEP (UniProt Q9NPF4), the thermal stability z-score was -0.0754 in assay [1] (setting [3]), 0.487 in assay [1] (arsenate co-treatment: none) and -0.208 in assay [2].

As to SPAG9 (UniProt O60271), the thermal stability z-score in assay [1] (setting [3]) is 0.012; in assay [1] (arsenate co-treatment: none), -0.0736; in assay [2], 0.732.

As to ARV1 (UniProt Q9H2C2), the results for the thermal stability z-score in assay [1] (setting [3]), in assay [1] (arsenate co-treatment: none) and in assay [2] were 0.292, 0.473 and -0.894, respectively.

As for RAB31 (UniProt Q13636), the thermal stability z-score in assay [1] (setting [3]) stood at 0.762; in assay [1] (arsenate co-treatment: none) it was 0.822; in assay [2], 0.42.

On to LMNA (UniProt P02545), for which the thermal stability z-score was 0.567 in assay [1] (setting [3]), 0.493 in assay [1] (arsenate co-treatment: none) and -0.488 in assay [2].

For the target KATNB1 (UniProt Q9BVA0), the results for the thermal stability z-score in assay [1] (setting [3]), in assay [1] (arsenate co-treatment: none) and in assay [2] were 0.145, 0.401 and -0.452, respectively.

On to RPS23 (UniProt P62266), for which the thermal stability z-score in assay [1] (setting [3]) was -0.0441; in assay [1] (arsenate co-treatment: none) it was 0.207; in assay [2] it was -0.0437.

CHD9 (UniProt Q3L8U1): the results for the thermal stability z-score in assay [1] (setting [3]), in assay [1] (arsenate co-treatment: none) and in assay [2] were -0.0359, -0.0662 and 0.384, respectively.

As to WASL (UniProt O00401), the figures for the thermal stability z-score in assay [1] (setting [3]), in assay [1] (arsenate co-treatment: none) and in assay [2] were -0.128, 0.327 and -1.26, respectively.

EPM2AIP1 (UniProt Q7L775): the values for the thermal stability z-score in assay [1] (setting [3]), in assay [1] (arsenate co-treatment: none) and in assay [2] were -0.0474, 0.0432 and -0.0491, respectively.

CD81 (UniProt P60033): the thermal stability z-score in assay [1] (setting [3]) was -0.142; in assay [1] (arsenate co-treatment: none), -0.642; in assay [2], -0.753.

With MAF1 (UniProt Q9H063), the thermal stability z-score was -0.0772 in assay [1] (setting [3]), -0.00412 in assay [1] (arsenate co-treatment: none) and -0.373 in assay [2].

For the target ZC3H7B (UniProt Q9UGR2), the figures for the thermal stability z-score in assay [1] (setting [3]), in assay [1] (arsenate co-treatment: none) and in assay [2] were -0.082, -0.0985 and -0.647, respectively.

Values taken from the supplement of paper PMC12463676, “Small-molecule dissolution of stress granules by redox modulation benefits ALS models” (Nature Chemical Biology, 2025).
